From publication PMC11684002 (Journal of medicinal chemistry, 2020)

Columns and labels:
[1] = molecular target: T1, human PPARα ligand binding domain (Gal4 hybrid) (Homo sapiens, UniProt Q07869); assay: Gal4 hybrid reporter gene assay, PPARα; details: trans-isomer in the dark, HEK293T
T1 sequence (Q07869 239-466 limits assumed): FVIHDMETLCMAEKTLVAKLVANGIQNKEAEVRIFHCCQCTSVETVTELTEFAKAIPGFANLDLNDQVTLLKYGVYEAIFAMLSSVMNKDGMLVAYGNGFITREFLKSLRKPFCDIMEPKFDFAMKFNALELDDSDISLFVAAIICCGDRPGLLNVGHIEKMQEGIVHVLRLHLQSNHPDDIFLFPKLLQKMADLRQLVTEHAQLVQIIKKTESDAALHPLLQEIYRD

Photostationary states = assay type: physicochemical; details: for PSS, % trans-isomer, dark: dark-adapted
PPARγ = details: read-out: PPARγ agonist EC50; cited from earlier work
[2] = tested on: human PPAR response element (PPRE), endogenous PPARγ; assay: PPRE reporter gene assay in PPARγ expressing HepG2 cells; assay type: cell-based; details: trans-isomer
[3] = after 365 nm illumination, CDCl3
[4] = after 460 nm illumination, CDCl3

Row | Structure (SMILES) | PSS, % trans-isomer, 365 nm (Photostationary states; [3]) [%] | PSS, % trans-isomer, 460 nm (Photostationary states; [4]) [%] | PSS, % trans-isomer, dark (Photostationary states; CDCl3) [%] | EC50 (PPARγ) [nM] | also measured
1 | O=C1NC(=O)C(Cc2ccc(/N=N/c3ccccc3)cc2)S1 (stereo not shown) [AzoRosi, (E)-5-(4-(phenyldiazenyl)benzyl)thiazolidine-2,4-dione] | 4 | 80 | 100 |  | PPARα activation at 10 μM [1]: 8% activation at 10 μM
3 | O=C1NC(=S)NC(=O)C1=Cc1ccc(OCc2ccccc2)c(Cl)c1 [MDG548] |  |  |  | 215 | 
4 | Cc1ccccc1-c1ccc(/N=N/c2ccc(CC3SC(=O)NC3=O)cc2)cc1 (stereo not shown) [AzoRosi-4, (E)-5-(4-((2′-methyl-[1,1′-biphenyl]-4-yl)diazenyl)benzyl)thiazolidine-2,4-dione] | 23 | 83 | 99 |  | PPRE activation at 10 μM [2]: some PPRE activation was observed
5 | O=C(c1ccccc1)c1ccccc1N[C@@H](Cc1ccc(/N=N/c2ccccc2)cc1)C(=O)O [AzoGW1929, (S,E)-2-((2-benzoylphenyl)amino)-3-(4-(phenyldiazenyl)phenyl)propanoic acid] |  |  |  |  | PSS, % trans-isomer, 365 nm (Photostationary states; after 365 nm illumination for five minutes, MeOD-d4): 67%; PSS, % trans-isomer, 460 nm (Photostationary states; after 460 nm illumination for five minutes, MeOD-d4): 76%; PSS, % trans-isomer, dark (Photostationary states; MeOD-d4): 95%
